Like-named read-outs stand apart in the source and are kept apart here.
Tests used:
Factor XIa = Factor XIa (Homo sapiens (Human), UniProt P03951); experiment: Factor XIa inhibition assay (FLINT) utilizing a fluorophore-quencher pair peptide substrate; format: biochemical; conditions: 30 min preincubation, kinetic reads over 30 min, read-out: FXIa Kin Inh IC50
How it was run: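 FXIa ([…]) preincubated 30 min with compound (11-point 3-fold dilution, top 100 nM, 2% DMSO), then 15 μM quenched FXI Arg146-based peptide added; Tris pH 7.5, CaCl2, BSA, CHAPS. Fluorescence 485/520 nm read kinetically every 5 min over 30 min at RT; IC50 by 4-parameter fit.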

human plasma kallikrein = human plasma kallikrein (Homo sapiens (Human), UniProt P03952); experiment: Kallikrein inhibition assay (FLINT) utilizing a quenched AMC peptide substrate; format: biochemical; conditions: 30 min preincubation, read-out: Kallikrein Kin Inh IC50
Chain of human plasma kallikrein (P03952 391-638): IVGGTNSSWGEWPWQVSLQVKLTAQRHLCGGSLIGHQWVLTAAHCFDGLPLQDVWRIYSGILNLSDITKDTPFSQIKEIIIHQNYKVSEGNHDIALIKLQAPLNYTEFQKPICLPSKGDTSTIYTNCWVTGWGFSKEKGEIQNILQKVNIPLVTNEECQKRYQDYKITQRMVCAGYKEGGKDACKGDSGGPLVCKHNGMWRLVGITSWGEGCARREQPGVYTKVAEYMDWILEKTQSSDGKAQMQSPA
Chain of human plasma kallikrein (P03952 20-390 partner): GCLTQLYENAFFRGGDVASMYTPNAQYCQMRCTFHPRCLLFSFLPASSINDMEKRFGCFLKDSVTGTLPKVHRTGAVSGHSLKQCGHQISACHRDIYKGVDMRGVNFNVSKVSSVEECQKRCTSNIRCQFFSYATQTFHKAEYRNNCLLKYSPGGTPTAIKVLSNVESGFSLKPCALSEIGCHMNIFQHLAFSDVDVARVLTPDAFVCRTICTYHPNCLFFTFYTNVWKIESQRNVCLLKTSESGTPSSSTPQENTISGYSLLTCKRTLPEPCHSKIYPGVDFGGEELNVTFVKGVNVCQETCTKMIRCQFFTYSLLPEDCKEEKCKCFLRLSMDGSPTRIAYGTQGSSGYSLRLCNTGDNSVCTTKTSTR
How it was run: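 Enzyme (2 nM final) pre-incubated 30 min at room temperature with compound (11-point, 3-fold, top 1 μM, 2% DMSO), then 50 μM Z-Gly-Pro-Arg-AMC added in Tris pH 7.5 buffer. Kinetic fluorescence 340/440 nm every 5 min over 30 min; IC50 from 4-parameter logistic fit.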

[1] = 5Fam-KLTRAETV-K5Tamra substrate 15 μM
[2] = kinetic reads over 30 min, Z-Gly-Pro-Arg-AMC substrate 50 μM
[3] = 5Fam-[…]-K5Tamra substrate 15 μM

Chain of Factor XIa (P03951 388-625): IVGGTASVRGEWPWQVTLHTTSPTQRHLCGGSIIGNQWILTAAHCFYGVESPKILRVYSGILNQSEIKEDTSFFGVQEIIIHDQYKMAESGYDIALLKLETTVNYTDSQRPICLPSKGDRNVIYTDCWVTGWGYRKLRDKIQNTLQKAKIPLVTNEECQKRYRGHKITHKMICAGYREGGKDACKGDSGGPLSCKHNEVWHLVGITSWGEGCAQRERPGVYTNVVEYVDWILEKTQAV
Chain of Factor XIa (P03951 19-387 partner): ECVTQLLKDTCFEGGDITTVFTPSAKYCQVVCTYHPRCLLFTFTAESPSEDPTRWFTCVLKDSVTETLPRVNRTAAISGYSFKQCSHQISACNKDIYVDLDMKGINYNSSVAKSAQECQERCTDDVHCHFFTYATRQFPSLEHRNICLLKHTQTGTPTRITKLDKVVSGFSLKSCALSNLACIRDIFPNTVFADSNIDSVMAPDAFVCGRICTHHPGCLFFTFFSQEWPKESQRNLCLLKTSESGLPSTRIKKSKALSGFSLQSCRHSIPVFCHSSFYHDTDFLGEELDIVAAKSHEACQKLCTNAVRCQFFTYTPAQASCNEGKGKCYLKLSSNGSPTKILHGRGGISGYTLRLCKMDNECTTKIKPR

Compound | IC50 (Factor XIa; [1]) [nM] | IC50 (human plasma kallikrein; [2]) [µM] | IC50 (Factor XIa; [3]) [nM] | IC50 (human plasma kallikrein; μM, kinetic reads) [µM]
CCC(=O)Nc1ccccc1-c1c[nH]c([C@@H]2CC[C@@H]3CC(c4c(-n5cnnn5)ccc(Cl)c4F)=CC(=O)N32)n1 (single isomer, unassigned) [Example 295, N-(2-(2-((3S,8aR*)-7-(3-Chloro-2-fluoro-6-(1H-tetrazol-1-yl)phenyl)-5-oxo-1,2,3,5,8,8a-hexahydroindolizin-3-yl)-1H-imidazol-4-yl)phenyl)propionamide] | 0.7 | 0.0026 | – | –
O=C1Cc2cc(-c3cnc([C@@H]4CC[C@H]5CC(c6c(-n7cnnn7)ccc(Cl)c6F)=CC(=O)N54)[nH]3)ccc2N1 [Example 283, 5-(2-((3S,8aS)-7-(3-Chloro-2-fluoro-6-(1H-tetrazol-1-yl)phenyl)-5-oxo-1,2,3,5,8,8a-hexahydroindolizin-3-yl)-1H-imidazol-5-yl)indolin-2-one] | 3.5 | 0.0059 | – | –
Nc1n[nH]c2cc(-c3cnc([C@@H]4CCC5CC(c6c(-n7cnnn7)ccc(Cl)c6F)=CC(=O)N54)[nH]3)ccc12 (stereo partly drawn) [Example 313, (3S)-3-(5-(3-Amino-1H-indazol-6-yl)-1H-imidazol-2-yl)-7-(3-chloro-2-fluoro-6-(1H-tetrazol-1-yl)phenyl)-2,3,8,8a-tetrahydroindolizin-5(1H)-one] | 0.2 | 0.0006 | – | –
[2H]c1cc(-c2cnc([C@@H]3CC[C@@H]4CC(c5cc(Cl)ccc5-n5cnnn5)=CC(=O)N43)[nH]2)c(F)nc1N [Example 124, (3S,8aR)-3-[5-(6-amino-5-deuterio-2-fluoro-3-pyridyl)-1H-imidazol-2-yl]-7-[5-chloro-2-(tetrazol-1-yl)phenyl]-2,3,8,8a-tetrahydro-1H-indolizin-5-one] | 0.4 | 0.0116 | – | –
O=C1C=C(c2c(-n3cnnn3)ccc(Cl)c2F)C[C@H]2CC[C@@H](c3ncc(-c4ccnc(N[C@H]5CCOC5)c4F)[nH]3)N12 (single isomer, unassigned) [Example 73, (3S,8aR*)-7-(3-chloro-2-fluoro-6-(1H-tetrazol-1-yl)phenyl)-3-(5-(3-fluoro-2-(((S)-tetrahydrofuran-3-yl)amino)pyridin-4-yl)-1H-imidazol-2-yl)-2,3,8,8a-tetrahydroindolizin-5(1H)-one] | – | 0.0027 | 0.6 | –
O=C1CCCN1c1nccc(-c2cnc([C@@H]3CC[C@@H]4CC(c5c(-n6cnnn6)ccc(Cl)c5F)=CC(=O)N43)[nH]2)c1F [Example 106, (3S,8aR)-7-(3-chloro-2-fluoro-6-(1H-tetrazol-1-yl)phenyl)-3-(5-(3-fluoro-2-(2-oxopyrrolidin-1-yl)pyridin-4-yl)-1H-imidazol-2-yl)-2,3,8,8a-tetrahydroindolizin-5(1H)-one] | 11 | 0.027 | – | –
COC(=O)Nc1ccc(-c2cnc([C@@H]3CCC4CC(c5c(-n6cnnn6)ccc(Cl)c5F)=CC(=O)N43)[nH]2)cn1 (stereo partly drawn) [Example 325, Methyl (5-(2-((3S)-7-(3-Chloro-2-fluoro-6-(1H-tetrazol-1-yl)phenyl)-5-oxo-1,2,3,5,8,8a-hexahydroindolizin-3-yl)-1H-imidazol-5-yl)pyridin-2-yl)carbamate] | 1.2 | 0.007 | – | –
[2H]C([2H])([2H])C(=O)Nc1cnccc1-c1c[nH]c([C@@H]2CCC3CC(c4c(-n5cnnn5)ccc(Cl)c4F)=CC(=O)N32)n1 (stereo partly drawn) [Example 256, N-[4-[2-[(3S)-7-[3-Chloro-2-fluoro-6-(tetrazol-1-yl)phenyl]-5-oxo-2,3,8,8a-tetrahydro-1H-indolizin-3-yl]-1H-imidazol-4-yl]-3-pyridyl]-2,2,2-trideuterio-acetamide] | – | 0.0675 | 1.4 | –
O=C1C=C(c2c(-n3cnnn3)ccc(Cl)c2F)C[C@H]2CC[C@H](c3ncc(-c4ccnc(N5CCC[C@H](O)C5)c4F)[nH]3)N12 [Example 188, (3R,8aR)-7-(3-chloro-2-fluoro-6-(1H-tetrazol-1-yl)phenyl)-3-(5-(3-fluoro-2-((S)-3-hydroxypiperidin-1-yl)pyridin-4-yl)-1H-imidazol-2-yl)-2,3,8,8a-tetrahydroindolizin-5(1H)-one] | 17.2 | 0.0078 | – | –
[2H][C@]12CC[C@@H](c3ncc(-c4ccc(N)nc4F)[nH]3)N1C(=O)C=C(c1c(-n3cnnn3)ccc(Cl)c1F)C2 [Example 146, (3S,8aR)-3-[5-(6-amino-2-fluoro-3-pyridyl)-1H-imidazol-2-yl]-7-[3-chloro-2-fluoro-6-(tetrazol-1-yl)phenyl]-8a-deuterio-1,2,3,8-tetrahydroindolizin-5-one] | 0.5 | 0.0073 | – | –
NC(=O)c1cc(-c2cnc([C@@H]3CC[C@@H]4CC(c5c(-n6cc(C(F)(F)F)nn6)ccc(Cl)c5F)=CC(=O)N43)[nH]2)ccn1 [Example 204, 4-(2-((3S,8aR)-7-(3-Chloro-2-fluoro-6-(4-(trifluoromethyl)-1H-1,2,3-triazol-1-yl)phenyl)-5-oxo-1,2,3,5,8,8a-hexahydroindolizin-3-yl)-1H-imidazol-5-yl)picolinamide] | 29.1 | 0.0245 | – | –
O=C(Nc1ccccc1-c1c[nH]c([C@@H]2CCC3CC(c4c(-n5cnnn5)ccc(Cl)c4F)=CC(=O)N32)n1)C1CCCC1 (stereo partly shown) [Example 330] | 0.9 | 0.0024 | – | –
CC(C)(CO)Nc1nccc(-c2cnc([C@@H]3CC[C@@H]4CC(c5c(-n6cnnn6)ccc(Cl)c5F)=CC(=O)N43)[nH]2)c1F [Example 89, (3S,8aR)-7-[3-chloro-2-fluoro-6-(tetrazol-1-yl)phenyl]-3-[5-[3-fluoro-2-[(2-hydroxy-1,1-dimethyl-ethyl)amino]-4-pyridyl]-1H-imidazol-2-yl]-2,3,8,8a-tetrahydro-1H-indolizin-5-one] | 5.8 | 0.0074 | – | –
O=C(Nc1ccccc1-c1c[nH]c([C@@H]2CC[C@@H]3CC(c4c(-n5cnnn5)ccc(Cl)c4F)=CC(=O)N32)n1)C1CC1 [Example 369, N-(2-(2-((3S,8aR)-7-(3-chloro-2-fluoro-6-(1H-tetrazol-1-yl)phenyl)-5-oxo-1,2,3,5,8,8a-hexahydroindolizin-3-yl)-1H-imidazol-4-yl)phenyl)cyclopropanecarboxamide] | 0.2 | 0.0005 | – | –
C[C@H]1C[C@@H](c2ncc(-c3ccc(N)nc3F)[nH]2)N2C(=O)C=C(c3c(-n4cnnn4)ccc(Cl)c3F)C[C@H]12 (relative stereo) [Example 344, (1*S,3S,8a*R)-3-(5-(6-Amino-2-fluoropyridin-3-yl)-1H-imidazol-2-yl)-7-(3-chloro-2-fluoro-6-(1H-tetrazol-1-yl)phenyl)-1-methyl-2,3,8,8a-tetrahydroindolizin-5(1H)-one] | – | – | 202 | 1.3
CC(C)(O)CNc1nccc(-c2[nH]c([C@@H]3CC[C@@H]4CC(c5cc(Cl)ccc5-n5cnnn5)=CC(=O)N43)nc2F)c1F [Example 84, (3S,8aR)-7-[5-chloro-2-(tetrazol-1-yl)phenyl]-3-[4-fluoro-5-[3-fluoro-2-[(2-hydroxy-2-methyl-propyl)amino]-4-pyridyl]-1H-imidazol-2-yl]-2,3,8,8a-tetrahydro-1H-indolizin-5-one] | 0.3 | 0.003 | – | –
O=C1CCc2cc(-c3cnc([C@@H]4CC[C@@H]5CC(c6c(-n7cnnn7)ccc(Cl)c6F)=CC(=O)N54)[nH]3)ccc2N1 (relative stereo) [Example 281, 6-(2-((3S,8aR)-7-(3-Chloro-2-fluoro-6-(1H-tetrazol-1-yl)phenyl)-5-oxo-1,2,3,5,8,8a-hexahydroindolizin-3-yl)-1H-imidazol-5-yl)-3,4-dihydroquinolin-2(1H)-one] | – | 0.0008 | 0.3 | –

— patent US20230295157A1, “3-(1H-IMIDAZOL-2-YL)-2,3,8,8A-TETRAHYDROINDOLIZIN-5(1H)-ONE DERIVATIVES USEFUL AS FACTOR XIA INHIBITORS” (JANSSEN PHARMACEUTICA NV, priority 2020, published 2023)
